Measurements from patent US8426174B2, “Method for the production of 2-butanol” (Butamax(TM) Advanced Biofuels LLC, priority 2007, dated 2013).
Where two headings read alike, the source gives them in different places.

Experiments:
[1] = tested on: E. coli strain MG1655
Procedure: For the stationary phase studies, E. coli strain MG1655 (ATCC #700926) was grown overnight in LB medium (Teknova, Half Moon Bay, Calif.) with shaking at 250 rpm at 42° C., 29° C. or 28° C. […] To these were added 10 μL of the overnight cultures and the tubes were immediately placed in shaking incubators at 42° C. or 28° C. or left on ice for 30 min. […] Then, 5 μL of the undiluted treated cultures were spotted on LB agar plates. Subsequent 10-fold serial dilutions of 10^−3, 10^−4, 10^−5 and 10^−6 of the exposed cultures were done by serial pipetting of 20 μL, starting with the 10^−2 dilution cultures, into 180 μL of LB medium in the microplate, using a multi-channel pipette. Prior to each transfer, the cultures were mixed by pipetting up and down six times. Each dilution (5 μL) was spotted onto an LB plate using a multi-channel pipette and allowed to soak into the plate. The plates were inverted and incubated overnight at 37° C. […] Survival of 0% was recorded when no colonies in the spots of the undiluted or any of the serial dilutions were observed.

[2] = tested on: Lactobacillus plantarum PN0512; test: Growth of L. plantarum PN0512 in the presence of butanols at different temperatures; type: cell-based; parameters: key to Growth at 37° C. / Growth at 30° C. / Growth at 25° C.: +: growth observed as an increase in OD600.; −: no growth observed, i.e. no change in OD600
Procedure: Tolerance levels of bacterial strain Lactobacillus plantarum PN0512 (ATCC # PTA-7727) were determined at 25° C., 30° C. and 37° C. as follows. The strain was cultured in S30L medium (i.e., 10 mM ammonium sulfate, 5 mM potassium phosphate buffer, pH 7.0, 50 mM MOPS, pH 7.0, 2 mM MgCl2, 0.7 mM CaCl2, 50 μM MnCl2, 1 μM FeCl3, 1 μM ZnCl2, 1.72 μM CuCl2, 2.53 μM CoCl2, 2.42 μM Na2MoO4, 2 μM thiamine hydrochloride, 10 mM glucose, and 0.2% yeast extract). An overnight culture in the absence of any test compound was started in 15 mL of the S30L medium in a 150 mL flask, with incubation at 37° C. in a shaking water bath. The next morning, the overnight culture was diluted into three 500 mL flasks containing 150 mL of fresh medium to an initial OD600 of about 0.08. Each flask was incubated in a shaking water bath, one each at 25° C., 30° C. and 37° C. Each large culture was allowed to acclimate at the test temperature for at least 0.5 h. […] Growth was followed by measuring OD600 for six hours after addition of the compounds.

[3] = 1.0 % (w/v) 1-butanol, grown at 29° C.
[4] = 1.0 % (w/v) 1-butanol, grown at 42° C.
[5] = 1.5 % (w/v) 1-butanol, grown at 29° C.
[6] = 1.5 % (w/v) 1-butanol, grown at 42° C.
[7] = 2.0 % (w/v) 1-butanol, grown at 29° C.
[8] = 2.0 % (w/v) 1-butanol, grown at 42° C.
[9] = 3.0 % (w/v) 1-butanol, grown at 29° C.
[10] = 3.0 % (w/v) 1-butanol, grown at 42° C.
[11] = 4.0 % (w/v) 1-butanol, grown at 29° C.
[12] = 4.0 % (w/v) 1-butanol, grown at 42° C.
[13] = […] (w/v) 1-butanol, grown at 29° C.
[14] = […] (w/v) 1-butanol, grown at 42° C.

For 1-butanol, the “% survival after 30 min exposure at 28° C.” value (shortened to “% survival … at 28° C.”) ([1]; 1.0 % (w/v) 1-butanol, grown at 28° C.) was 100%, the “% survival after 30 min exposure at 0° C.” value (“% survival … at 0° C.” for short) [1, 3] was 100% and the “% survival after 30 min exposure at 42° C.” value (shortened to “% survival … at 42° C.”) [1, 3] was 100%. For the same substance, the “% survival … at 0° C.” value [1, 4] was 100%, the “% survival … at 28° C.” value [1, 4] was 100% and the “% survival … at 42° C.” value [1, 4] was 100%. For the same substance, the “% survival … at 28° C.” value ([1]; 1.5 % (w/v) 1-butanol, grown at 28° C.) was 100%, the “% survival … at 0° C.” value [1, 5] was 100% and the “% survival … at 42° C.” value [1, 5] was 0.1%. For the same substance, the “% survival … at 0° C.” value [1, 6] was 100%, the “% survival … at 28° C.” value [1, 6] was 100% and the “% survival … at 42° C.” value [1, 6] was 0.1%. The “% survival … at 28° C.” value ([1]; 2.0 % (w/v) 1-butanol, grown at 28° C.) was 100%, the “% survival … at 0° C.” value [1, 7] was 100% and the “% survival … at 42° C.” value [1, 7] was 0.1%. The “% survival … at 0° C.” value [1, 8] was 100%, the “% survival … at 28° C.” value [1, 8] was 100% and the “% survival … at 42° C.” value [1, 8] was 0%. The “% survival … at 28° C.” value ([1]; 3.0 % (w/v) 1-butanol, grown at 28° C.) was 100%, the “% survival … at 0° C.” value [1, 9] was 100% and the “% survival … at 42° C.” value [1, 9] was 0%. For the same substance, the “% survival … at 0° C.” value [1, 10] was 100%, the “% survival … at 28° C.” value [1, 10] was 100% and the “% survival … at 42° C.” value [1, 10] was 0%. The “% survival … at 28° C.” value ([1]; 4.0 % (w/v) 1-butanol, grown at 28° C.) was 0.0003%, the “% survival … at 0° C.” value [1, 11] was 100% and the “% survival … at 42° C.” value [1, 11] was 0%. For the same substance, the “% survival … at 0° C.” value [1, 12] was 100%, the “% survival … at 28° C.” value [1, 12] was 0.0004% and the “% survival … at 42° C.” value [1, 12] was 0%. The “% survival … at 0° C.” value ([1]; 5.0 % (w/v) 1-butanol, grown at 29° C.) was 1%, the “% survival … at 0° C.” value ([1]; 5.0 % (w/v) 1-butanol, grown at 42° C.) was 1% and the “% survival … at 0° C.” value ([1]; 6.0 % (w/v) 1-butanol, grown at 29° C.) was 0.001%. For the same substance, the “% survival … at 0° C.” value ([1]; 6.0 % (w/v) 1-butanol, grown at 42° C.) was 0%, the “% survival … at 0° C.” value ([1]; 7.0 % (w/v) 1-butanol, grown at 29° C.) was 0% and the “% survival … at 0° C.” value ([1]; 7.0 % (w/v) 1-butanol, grown at 42° C.) was 0%. The “% survival … at 0° C.” value [1, 13] was 100%, the “% survival … at 42° C.” value [1, 13] was 0% and the “% survival … at 0° C.” value [1, 14] was 100%. The “% survival … at 42° C.” value [1, 14] was 0%, the “Growth at 37° C.” value ([2]; 1.0 % w/v 1-butanol) was “+” and the “Growth at 37° C.” value ([2]; 1.2 % w/v 1-butanol) was “+”. For the same substance, the “Growth at 37° C.” value ([2]; 1.4 % w/v 1-butanol) was “+”, the “Growth at 25° C.” value ([2]; 1.5 % w/v 1-butanol) was “+” and the “Growth at 30° C.” value ([2]; 1.5 % w/v 1-butanol) was “+”. For the same substance, the “Growth at 37° C.” value ([2]; 1.5 % w/v 1-butanol) was “+”, the “Growth at 37° C.” value ([2]; 1.6 % w/v 1-butanol) was “+” and the “Growth at 37° C.” value ([2]; 1.8 % w/v 1-butanol) was “+”. The “Growth at 25° C.” value ([2]; 2.0 % w/v 1-butanol) was “+”, the “Growth at 30° C.” value ([2]; 2.0 % w/v 1-butanol) was “+” and the “Growth at 37° C.” value ([2]; 2.0 % w/v 1-butanol) was “+”. For the same substance, the “Growth at 37° C.” value ([2]; 2.1 % w/v 1-butanol) was “+”, the “Growth at 37° C.” value ([2]; 2.2 % w/v 1-butanol) was “+” and the “Growth at 37° C.” value ([2]; 2.3 % w/v 1-butanol) was “+”. The “Growth at 25° C.” value ([2]; 2.4 % w/v 1-butanol) was “+”, the “Growth at 30° C.” value ([2]; 2.4 % w/v 1-butanol) was “+” and the “Growth at 37° C.” value ([2]; 2.4 % w/v 1-butanol) was “−^2”. The “Growth at 30° C.” value ([2]; 2.7 % w/v 1-butanol) was “+”, the “Growth at 37° C.” value ([2]; 2.7 % w/v 1-butanol) was “−” and the “Growth at 25° C.” value ([2]; 2.9 % w/v 1-butanol) was “+”. The “Growth at 30° C.” value ([2]; 2.9 % w/v 1-butanol) was “−”, the “Growth at 37° C.” value ([2]; 2.9 % w/v 1-butanol) was “−” and the “Growth at 25° C.” value ([2]; 3.1 % w/v 1-butanol) was “+”. For the same substance, the “Growth at 30° C.” value ([2]; 3.1 % w/v 1-butanol) was “−”, the “Growth at 37° C.” value ([2]; 3.1 % w/v 1-butanol) was “−” and the “Growth at 25° C.” value ([2]; 3.2 % w/v 1-butanol) was “−”. For the same substance, the “Growth at 30° C.” value ([2]; 3.2 % w/v 1-butanol) was “−”, the “Growth at 25° C.” value ([2]; 3.3 % w/v 1-butanol) was “−” and the “Growth at 25° C.” value ([2]; 3.4 % w/v 1-butanol) was “−”. The “Growth at 30° C.” value ([2]; 3.4 % w/v 1-butanol) was “−”, the “concentration in which growth was observed” value ([2]; 25° C.) was 3.1% and the “concentration in which growth was not observed” value ([2]; 30° C.) was 2.9%. The “concentration in which growth was observed” value ([2]; 30° C.) was 2.7%, the “concentration in which growth was not observed” value ([2]; 37° C.) was 2.4% and the “concentration in which growth was observed” value ([2]; 37° C.) was 2.3%. The “Growth at 37° C.” value ([2]; […] w/v 1-butanol) was “−”.
